Legend:
[1] = tested on: LPS-activated neurons in the cNST; assay: Chemogenetic activation of LPS-TRAPed cNST neurons, cytokines; format: in vivo, mice
Procedure: (§1) All stereotaxic surgery procedures were carried out using aseptic technique. […] The viral constructs were injected into the cNST through a small craniotomy. The injection coordinates (based on Paxinos stereotaxic coordinates) for virus delivery in the cNST were as follows: caudal 7.5 mm, lateral ±0.3 mm, ventral 3.7-4 mm, all relative to Bregma. In chemogenetic experiments, TRAP2, Dbh-cre, Vglut2-cre and Vgat-cre mice received bilateral injections of 200 nl of AAV9-Syn-DIO-hM3Dq (Addgene, #44361-AAV9) and 300 nl of AAV9-Syn-DIO-hM4Di (Addgene, #44362-AAV9) in the cNST. Equivalent volumes of AAV9-Syn-DIO-mCherry (Addgene, #50459-AAV9) were injected as controls. For fiber photometry experiments, Vglut2-cre mice were unilaterally injected with 100 nl of AAV9-Syn-Flex-GCaMP6s (Addgene, #100845-AAV9) in the cNST, and an optical fiber (400 μm core, 0.48 NA, Doric Lenses) was implanted 50-100 μm above the GCaMP virus injection site.
(§2) The TRAP strategy was used in TRAP2 mice to gain genetic access to LPS-activated neurons in the cNST. […]
(§3) When using TRAP2 animals, at least 4 weeks elapsed between TRAPing and CNO treatment. […] Cytokines in the blood were measured using commercially available ELISA kits (R&D), following manufacturer's instructions. […]

cNST neurons [2] = assay: Fos induction in the cNST after intraperitoneal immune stimulation; format: in vivo, mice; details: for Fos induction in the cNST: intraperitoneal injection, brains taken 2 h later
Procedure: (§4) Mice housed in their home cages were injected intraperitoneally with lipopolysaccharide (LPS, 50 μg kg-1, Cell Signaling Technology, #14011), lipoteichoic acid (LTA, 1 mg kg-1 Sigma, #L2512), Flagellin (20 μg kg-1, Sigma Aldrich #SRP8029), Profilin (20 μg kg-1, Sigma Aldrich, #SRP8050), Zymosan (2.5 mg kg-1, Sigma Aldrich #Z4250), IL-10 (100 μg kg-1, BioLegend, #575804), a cocktail of IL-6 (100 μg kg-1, BioLegend #575706), IL-1β (100 μg kg-1, R&D, #401-ML) and TNF-α (100 μg kg-1, R&D, #410-MT), or saline control (0.9% NaCl), then 2 h later, perfused transcardially with PBS followed by 4% paraformaldehyde. Brains were dissected, fixed in 4% PFA overnight at 4° C., and then sliced coronally at 100 μm thickness. The brain sections were permeabilized and blocked with 10% normal donkey serum (EMD Millipore, #S30) in PBS containing 0.3% Triton X-100. Sections were incubated with an anti-Fos primary antibody (SYSY, #226004 guinea pig, diluted 1:5,000) at 4° C. overnight, followed by labeling with a secondary antibody (Alexa Fluor 647-conjugated donkey anti-guinea pig, Jackson ImmunoResearch, #706605148) at room temperature for 2 h. For double RNA in situ hybridization, fixed frozen nodose ganglia or brains were sectioned at 16 μm thickness and processed for mRNA detection using the RNAscope Fluorescent Multiplex Kit (Advanced Cell Diagnostics) following the manufacturer's instructions. The following RNAscope probes were used: Fos (#316921-C2), Dbh (#464621-C1), Trpa1 (#400211-C3) and Calca (#578771-C2), GFP (#400281-C1). Images were acquired using an Olympus FluoView 1000 confocal microscope. Quantification of fluorescent signals was carried out by manually counting the number of positive neurons.

vagal sensory neurons = assay: Vagal calcium imaging of nodose ganglion (GCaMP6s in all vagal sensory neurons); format: in vivo, mice; details: for number of responding vagal sensory neurons: of 423 imaged vagal sensory neurons, cytokine intraperitoneal; for calcium activity in a subset of vagal sensory neurons: intraperitoneal cytokine, nodose ganglion
Procedure: (§5) Calcium imaging of the nodose ganglion was conducted as described previously (Li, M. et al. Nature 610, 722-730, (2022); Tan, H. E. et al. Nature 580, 511-516, (2020)). For imaging in response to intragastric delivery of glucose (or linoleic acid), and IP injections of saline control and cytokines, a typical recording session consisted of: 1st: saline; 2nd: one of the three pro-inflammatory cytokines (TNF-α, IL-1β or IL-6); 3rd: anti-inflammatory cytokine (IL-10); 4th and 5th: two trials with glucose (or linoleic acid); each trial was 5 min. Cytokines were injected 1 min after the onset of the recording. Glucose (500 mM) and linoleic acid (10%) was delivered intragastrically. For all experiments 100 μg kg-1 of each cytokine was used. To deliver cytokines […], a segment of the intestine was placed in a custom-made perfusion chamber while still keeping it connected to the remainder of the gastrointestinal tract (no carbogenation). Each recording session included six interleaved trials, with 2 trials for each stimulus. Trials were 15 mins long, and consisted of a 180-s baseline (saline), a 180-s cytokine or control stimulus, and a 9-min washout (saline) period. The flow rates were maintained at around 600 μl min-1 throughout the experiment to minimize mechanical responses that may occur during the transition between trials. Cytokines were dissolved in saline at the concentration of 1 μg ml-1. During the entire perfusion session, all of the solutions were maintained at 37° C.
Imaging data was acquired exactly as previously described (Li, M. et al. Nature 610, 722-730, (2022); Tan, H. E. et al. Nature 580, 511-516, (2020)). Neuronal activity was analyzed for significant stimulus-evoked responses as described. The baseline distribution of deviations was first computed from the median for each cell throughout the entire experiment using periods prior to the stimulus delivery. Subsequently, this baseline was utilized to derive a modified z-score by subtracting the median and dividing by the median absolute deviation. Trials with an average modified z-score above 1.6 for the 180s (stimuli delivered via IP) or 480s (stimuli delivered via perfusion) following the initiation of stimulation were classified as responding trials (all responders had minimal peak amplitudes of 1% ΔF/F). Z-scores from responders were normalized across stimuli to generate heat maps of normalized fluorescence traces.

DBH neurons in the cNST = assay: Fos induction in DBH neurons in the cNST by LPS and cytokine stimulation; format: in vivo; details: Dbh-cre mice, intraperitoneal injection
Procedure: as §4, with “For double RNA in situ hybridization, fixed frozen nodose ganglia or brains were sectioned at 16 μm thickness and processed for mRNA detection using the RNAscope Fluorescent Multiplex Kit (Advanced Cell Diagnostics) following the manufacturer's instructions. The following RNAscope probes were used: Fos (#316921-C2), Dbh (#464621-C1), Trpa1 (#400211-C3) and Calca (#578771-C2), GFP (#400281-C1). Images were acquired using an Olympus FluoView 1000 confocal microscope.” left out

[3] = tested on: LPS-activated neurons in the cNST; assay: Chemogenetic inhibition of LPS-TRAPed cNST neurons, LPS-evoked cytokines; format: in vivo, mice; parameters: unit not given here; details: LPS-treated but not silenced animals
Procedure: as §1, §2, §3

cNST neurons [4] = assay: Fiber photometry of LPS-evoked activity in the cNST (GCaMP6s, Vglut2-cre mice); format: in vivo
Procedure: as §1
Photometry experiments were conducted at least 14 days after the stereotaxic viral injection and fiber implantation (see the section on stereotaxic surgery for details). Prior to the experiments, mice were acclimated to the recording chamber for 1 h per day over 3 consecutive days. On the 4th and 5th day, mice were recorded for the bulk GCaMP responses to saline and LPS (0.5 mg kg-1), respectively, in a 5 h recording session. Saline and LPS were intraperitoneally injected 15 min after the onset of recording. Real-time population-level GCaMP fluorescence signals were detected, amplified and recorded using a RZ5P fiber photometry system with Synapse software (Tucker Davis Technologies). The collected data were downsampled, detrended and smoothed by custom MATLAB code. The calcium transients were identified as described previously (Barretto, R. P. et al. Nature 517, 373-376, (2015); Rousseeuw, P. J. C., C. J. Am. Stat. Assoc. 88, 1273-1283, (1993); Jin, H., Fishman, Z. H., Ye, M., Wang, L. & Zuker, C. S. Cell 184, 257-271 e216, (2021)) and the area under the curve (AUC) was calculated by integrating fluorescence signal under identified calcium transients. […]

circulating cytokines = assay: LPS-induced circulating cytokines in peripheral blood by ELISA; format: in vivo, mice
Procedure: When using TRAP2 animals, at least 4 weeks elapsed between TRAPing and CNO treatment. Two doses (2 mg kg-1 and 1 mg kg-1) of CNO were given intraperitoneally at 12 h and 1 h prior to saline or LPS stimulation. Two hours after the intraperitoneal injection of saline or LPS (0.1 mg kg-1), blood samples were collected from either the submandibular or the tail vein. Cytokines in the blood were measured using commercially available ELISA kits (R&D), following manufacturer's instructions. Saline and LPS experiments were conducted on the same cohort of mice but at least 7 days apart.
To examine LPS-induced cytokine responses over time, wild-type (C56BL/6J) mice were injected IP with saline or LPS, and peripheral blood samples were collected at 0, 2 hours, 4 hours, and 6 hours post-stimulation.

TRPA1 vagal neurons = assay: Calcium imaging of TRPA1 vagal neurons; format: in vivo, mice
Procedure: as §5, with “Trials were 15 mins long, and consisted of a 180-s baseline (saline), a 180-s cytokine or control stimulus, and a 9-min washout (saline) period. The flow rates were maintained at around 600 μl min-1 throughout the experiment to minimize mechanical responses that may occur during the transition between trials. Cytokines were dissolved in saline at the concentration of 1 μg ml-1. During the entire perfusion session, all of the solutions were maintained at 37° C.” left out
Imaging data was acquired exactly as previously described (Li, M. et al. Nature 610, 722-730, (2022); Tan, H. E. et al. Nature 580, 511-516, (2020)). Neuronal activity was analyzed for significant stimulus-evoked responses as described. […] Z-scores from responders were normalized across stimuli to generate heat maps of normalized fluorescence traces.

## C[N+]1([O-])CCN(C2=Nc3cc(Cl)ccc3Nc3ccccc32)CC1 [CNO, clozapine N-oxide]
[1]
  anti-inflammatory cytokines (IL-10), change on activation: very large increase
  pro-inflammatory cytokines, change on activation: dramatic suppression

## Flagellin
cNST neurons [2]
  Fos induction in the cNST: robustly activated Fos

## IL-1β: pro-inflammatory cytokine
Vagal sensory neurons
  number of responding vagal sensory neurons: 8

## Profilin
cNST neurons [2]
  Fos induction in the cNST: robustly activated Fos

## lipopolysaccharide [LPS]
Vagal sensory neurons; LPS 0.5 mg kg-1
  direct activation of vagal neurons: not directly activated
DBH neurons in the cNST
  activation (Fos) of DBH neurons in the cNST: activate DBH neurons
cNST neurons [2]; Myd88−/− mice, LPS intraperitoneally, 2 h
  Fos expression in the cNST of Myd88−/− mice: largely absent
cNST neurons [2]
  Fos induction in the cNST: robustly activated Fos
[3]
  IL-1β level: 200
  IL-10 level: 750
cNST neurons [4]; LPS 0.5 mg kg-1
  reduction of average cNST response after vagotomy: ~80%
cNST neurons [4]; LPS 0.5 mg kg-1, after bilateral vagotomy
  cNST GCaMP6s response, AUC (area under the curve): 10.6±6.1
cNST neurons [4]; LPS 0.5 mg kg-1, intact vagus
  cNST GCaMP6s response, AUC (area under the curve): 52.6±7.2
Circulating cytokines; IL-6, IL-1β, TNF-α, IL-10, 2 h after LPS
  cytokine induction in Myd88−/− mice: dramatically reduced
Circulating cytokines; control animals given LPS
  TNFa in the peripheral blood: 200 pg/mL

## lipoteichoic acid [LTA]
cNST neurons [2]
  Fos induction in the cNST: robustly activated Fos

## tumor necrosis factor [TNF-α]
Vagal sensory neurons
  calcium activity in a subset of vagal sensory neurons: triggered robust activity
  number of responding vagal sensory neurons: 13

B1: interleukin-10 (protein, UniProt P22301 19-178, looked up)
Interleukin-10: SPGQGTQSENSCTHFPGNLPNMLRDLRDAFSRVKTFFQMKDQLDNLLLKESLLEDFKGYLGCQALSEMIQFYLEEVMPQAENQDPDIKAHVNSLGENLKTLRLRLRRCHRFLPCENKSKAVEQVKNAFNKLQEKGIYKAMSEFDIFINYIEAYMTMKIRN
notes: anti-inflammatory cytokine
Vagal sensory neurons
  number of responding vagal sensory neurons: 11/423
DBH neurons in the cNST
  activation (Fos) of DBH neurons in the cNST: activate DBH neurons
cNST neurons [2]
  Fos induction in the cNST: induces significant Fos labelling
TRPA1 vagal neurons; GCaMP6s imaging
  activation of TRPA1-expressing vagal neurons: activated
TRPA1 vagal neurons; imaged TRPA1 neurons, IP or perfusion
  number of responding TRPA1 neurons: 27 of 189

B2: interleukin-4 (protein, UniProt P05112 25-153, looked up)
Interleukin-4: HKCDITLQEIIKTLNSLTEQKTLCTELTVTDIFAASKNTTEKETFCRAATVLRQFYSHHEKDTRCLGATAQQFHRHKQLIRFLKRLDRNLWGLAGLNSCPVKEANQSTLENFLERLKTIMREKYSKCSS
notes: anti-inflammatory cytokine
Vagal sensory neurons
  calcium activity in a subset of vagal sensory neurons: triggered robust activity

From patent publication US20250287930A1, “REGULATION OF IMMUNE RESPONSES THROUGH SELECTIVE NEURAL ACTIVATION” (The Trustees of Columbia University in the City of New York, priority 2024, published 2025)
